In PubChem BioAssay AID330 (DTP/NCI, 2004):
“And” between values parts separate entries of the source, which are not always exact repeats. Equal values may be shown once. Toxic doses and inconclusive results are not listed. The calls were made as follows: active = survival T/C of 150% or more; inactive = T/C below 125% in these data.

Tested on: P388 leukemia ip, CD2F1 mice, survival T/C
Experiment: NCI In Vivo Anticancer Drug Screen. Data for tumor model P388 Leukemia (intraperitoneal) in CD2F1 (CDF1) mice
Settings: endpoint: median survival time, higher = longer survival
In short: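 Mice carrying the transplanted tumor received test compound or vehicle. Survival was recorded in each group, and the value is the treated-group measurement divided by that of the vehicle-treated control group.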

[1] = dose: 100.0 mg/kg/injection, schedule: Q01DX001 (ip), vehicle: Klucel (hydroxypropylcellulose) (HPC)
[2] = dose: 200.0 mg/kg/injection, schedule: Q01DX001 (ip), vehicle: Klucel (hydroxypropylcellulose) (HPC)
[3] = dose: 50.0 mg/kg/injection, schedule: Q01DX009 (ip), vehicle: saline with Tween-80
[4] = dose: 100.0 mg/kg/injection, schedule: Q01DX009 (ip), vehicle: saline with Tween-80
[5] = dose: 200.0 mg/kg/injection, schedule: Q01DX009 (ip), vehicle: saline with Tween-80
[6] = dose: 50.0 mg/kg/injection, schedule: Q01DX009 (ip), vehicle: saline
[7] = dose: 100.0 mg/kg/injection, schedule: Q01DX009 (ip), vehicle: saline
[8] = dose: 200.0 mg/kg/injection, schedule: Q01DX009 (ip), vehicle: saline
[9] = dose: 50.0 mg/kg/injection, schedule: Q01DX005 (ip), vehicle: Klucel (hydroxypropylcellulose) (HPC)
[10] = dose: 100.0 mg/kg/injection, schedule: Q01DX005 (ip), vehicle: Klucel (hydroxypropylcellulose) (HPC)
[11] = dose: 200.0 mg/kg/injection, schedule: Q01DX005 (ip), vehicle: Klucel (hydroxypropylcellulose) (HPC)
[12] = dose: 25.0 mg/kg/injection, schedule: Q01DX009 (ip), vehicle: saline
[13] = dose: 60.0 mg/kg/injection, schedule: Q01DX005 (ip), vehicle: saline with Tween-80
[14] = dose: 120.0 mg/kg/injection, schedule: Q01DX005 (ip), vehicle: saline with Tween-80
[15] = dose: 240.0 mg/kg/injection, schedule: Q01DX005 (ip), vehicle: saline with Tween-80
[16] = dose: 50.0 mg/kg/injection, schedule: Q01DX005 (ip), vehicle: saline with Tween-80
[17] = dose: 100.0 mg/kg/injection, schedule: Q01DX005 (ip), vehicle: saline with Tween-80
[18] = dose: 200.0 mg/kg/injection, schedule: Q01DX005 (ip), vehicle: saline with Tween-80
[19] = dose: 100.0 mg/kg/injection, schedule: Q04DX003 (ip), vehicle: saline with Tween-80
[20] = dose: 200.0 mg/kg/injection, schedule: Q04DX003 (ip), vehicle: saline with Tween-80
[21] = dose: 400.0 mg/kg/injection, schedule: Q04DX003 (ip), vehicle: saline with Tween-80

Measured: T/C

C(NC=C(c1ccccc1)c1ccccc1)=C(c1ccccc1)c1ccccc1
inactive: [1] 103 % of control | [2] 107 % of control | dose: 400.0 mg/kg/injection, schedule: Q01DX001 (ip), vehicle: Klucel (hydroxypropylcellulose) (HPC) 103 % of control

Cc1cc(C)c2c(=O)n(C)c(=O)n(C)c2n1
inactive: [3] 89 % of control | [4] 94 % of control | [5] 103 % of control

O=C(CCl)N1c2ccccc2Sc2ccc3ccccc3c21
inactive: [6] 95 % of control | [7] 102 % of control | [8] 113 % of control

COc1ccccc1/C=C\C1=CC(=O)CC(c2ccccc2OC)C1C (stereo not given)
inactive: dose: 50.0 mg/kg/injection, schedule: Q01DX001 (ip), vehicle: Klucel (hydroxypropylcellulose) (HPC) 104 % of control | [1] 100 % of control | [2] 91 % of control

COc1cc2c(c3c1c(=O)c1cc(F)ccc1n3C)C=CC(C)(C)O2
inactive: [9] 103 % of control | [10] 100 % of control and 104 % of control | [11] 105 % of control and 98 % of control

COc1ccccc1N=Nc1cc(S(=O)(=O)O)c2ccccc2c1O
inactive: [12] 89 % of control | [6] 97 % of control | [7] 100 % of control and 117 % of control | [8] 91 % of control

NN(CC(O)COc1ccccc1)C(=O)c1ccccc1O (stereo not given)
inactive: dose: 50.0 mg/kg/injection, schedule: Q01DX009 (ip), vehicle: Klucel (hydroxypropylcellulose) (HPC) 108 % of control | dose: 100.0 mg/kg/injection, schedule: Q01DX009 (ip), vehicle: Klucel (hydroxypropylcellulose) (HPC) 108 % of control | dose: 200.0 mg/kg/injection, schedule: Q01DX009 (ip), vehicle: Klucel (hydroxypropylcellulose) (HPC) 106 % of control

CCCCOC1NC(=O)Oc2ccccc21 (stereo not given)
inactive: [13] 100 % of control and 103 % of control and 97 % of control | [14] 101 % of control and 108 % of control (2×) | [15] 100 % of control and 109 % of control

C=C1C(=O)O[C@@H]2C[C@@H](C)[C@@H]3CC(=O)OC[C@@]3(C)C[C@H]12
inactive: dose: 50.0 mg/kg/injection, schedule: Q01DX001 (ip), vehicle: saline with Tween-80 100 % of control | dose: 100.0 mg/kg/injection, schedule: Q01DX001 (ip), vehicle: saline with Tween-80 117 % of control | dose: 200.0 mg/kg/injection, schedule: Q01DX001 (ip), vehicle: saline with Tween-80 118 % of control

COC(=O)C12C3c4ccccc4C1C2c1ccccc13 (stereo not given)
inactive: dose: 100.0 mg/kg/injection, schedule: Q04DX002 (ip), vehicle: saline 99 % of control | dose: 200.0 mg/kg/injection, schedule: Q04DX002 (ip), vehicle: saline 94 % of control | dose: 400.0 mg/kg/injection, schedule: Q04DX002 (ip), vehicle: saline 96 % of control

CCN(CC)CC(C)=O
inactive: [12] 101 % of control | [6] 102 % of control | [7] 103 % of control | [8] 104 % of control

O=C(Nc1ccc(S(=O)(=O)Nc2nccs2)cc1)c1ccncc1
inactive: [16] 102 % of control | [17] 102 % of control | [18] 102 % of control

c1ccc(-c2c3ccccc3c[n+]3ccccc23)cc1
inactive: dose: 3.13 mg/kg/injection, schedule: Q01DX009 (ip), vehicle: Klucel (hydroxypropylcellulose) (HPC) 106 % of control | dose: 6.25 mg/kg/injection, schedule: Q01DX009 (ip), vehicle: Klucel (hydroxypropylcellulose) (HPC) 92 % of control

CC1N(N2C(=O)CS(=O)(=O)C2C)C(=O)CS1(=O)=O (stereo not given)
inactive: [16] 90 % of control | [17] 95 % of control | [18] 89 % of control

Cc1nn(-c2ccccc2)c(=O)n2c1nc1ccccc12
inactive: dose: 60.0 mg/kg/injection, schedule: Q01DX005 (ip), vehicle: Klucel (hydroxypropylcellulose) (HPC) 99 % of control | dose: 120.0 mg/kg/injection, schedule: Q01DX005 (ip), vehicle: Klucel (hydroxypropylcellulose) (HPC) 97 % of control | dose: 240.0 mg/kg/injection, schedule: Q01DX005 (ip), vehicle: Klucel (hydroxypropylcellulose) (HPC) 91 % of control

O=C(NC(=O)C(F)(F)F)Nc1ccc(F)c(Cl)c1
inactive: [3] 96 % of control | [4] 105 % of control | [5] 104 % of control

CCC(=O)c1c(O)cc(O)cc1O
inactive: dose: 50.0 mg/kg/injection, schedule: Q04DX003 (ip), vehicle: saline with Tween-80 103 % of control | [19] 103 % of control | [20] 102 % of control | [21] 103 % of control

CCOC(=O)c1nn(C)c2oc(=O)ccc12
inactive: dose: 25.0 mg/kg/injection, schedule: Q01DX005 (ip), vehicle: Klucel (hydroxypropylcellulose) (HPC) 106 % of control | [9] 108 % of control | [10] 104 % of control | [11] 104 % of control

Cc1ccc(S(=O)(=O)OC2CCC3(C)C(CCC4C3CCC3(C)C(C(C)CCCC(C)C)CCC43)C2)cc1 (stereo not given)
inactive: dose: 3.0 mg/kg/injection, schedule: Q01DX005 (ip), vehicle: Klucel (hydroxypropylcellulose) (HPC) 107 % of control | dose: 6.0 mg/kg/injection, schedule: Q01DX005 (ip), vehicle: Klucel (hydroxypropylcellulose) (HPC) 117 % of control | dose: 12.5 mg/kg/injection, schedule: Q01DX005 (ip), vehicle: Klucel (hydroxypropylcellulose) (HPC) 100 % of control

CN(c1ccccc1)C1CS(=O)(=O)OC2=C1CN(Cc1ccccc1)CC2 (stereo not given)
inactive: [19] 99 % of control | [20] 94 % of control | [21] 90 % of control

Cc1cc(C(=O)O)nn1-c1ccc(S(=O)(=O)N2CCC(=O)N(C3CCCCC3)C2=S)cc1
inactive: [16] 95 % of control | [17] 101 % of control | [18] 101 % of control

[O-][N+]1=C(/C=C/C=C/c2ccccc2)CCC1
inactive: dose: 50.0 mg/kg/injection, schedule: Q01DX009 (ip), vehicle: other 95 % of control | dose: 100.0 mg/kg/injection, schedule: Q01DX009 (ip), vehicle: other 107 % of control | dose: 200.0 mg/kg/injection, schedule: Q01DX009 (ip), vehicle: other 118 % of control

O=C1CCCC2=C1C(c1ccccc1)C1=C(CCCC1=O)O2
inactive: [13] 100 % of control | [14] 94 % of control | [15] 92 % of control

COc1ccc(OC(C)C(=O)O)cc1 (stereo not given)
inactive: [9] 101 % of control | [10] 98 % of control | [11] 95 % of control

COc1ccc(C2(C)C(C#N)(C#N)C2(C#N)C#N)cc1
inactive: dose: 18.75 mg/kg/injection, schedule: Q01DX009 (ip), vehicle: saline 103 % of control | dose: 37.5 mg/kg/injection, schedule: Q01DX009 (ip), vehicle: saline 100 % of control | dose: 75.0 mg/kg/injection, schedule: Q01DX009 (ip), vehicle: saline 116 % of control | dose: 150.0 mg/kg/injection, schedule: Q01DX009 (ip), vehicle: saline 111 % of control

COc1cc2c(c(OC)c1)C(O)=C1C(=O)C3C(O)=C(C(=O)NC(C)(C)C)C(=O)C(NC(=S)c4ccccc4)C3CC1C2 (stereo not given)
inactive: [13] 92 % of control | [14] 94 % of control | [15] 101 % of control

CCc1nc(N)nc(N)c1-c1ccc(N(C)Cc2ccccc2)c(N)c1
inactive: [9] 96 % of control | [10] 93 % of control | [11] 103 % of control

N#Cc1c(NC(=O)Nc2cc(C(F)(F)F)ccc2Cl)sc(=S)c2c1CCCC2
inactive: [16] 100 % of control | [17] 103 % of control

O=C([CH-]C(=O)C(F)(F)F)C(F)(F)F.O=C([CH-]C(=O)C(F)(F)F)C(F)(F)F.O=C([CH-]C(=O)C(F)(F)F)C(F)(F)F.[Ru+3]
inactive: dose: 7.5 mg/kg/injection, schedule: Q01DX005 (ip), vehicle: Klucel (hydroxypropylcellulose) (HPC) 97 % of control | dose: 15.0 mg/kg/injection, schedule: Q01DX005 (ip), vehicle: Klucel (hydroxypropylcellulose) (HPC) 87 % of control

Oc1ccc(Nc2c3ccccc3nc3c2ccc2ccccc23)cc1CN(CCCl)CCCl
active: dose: 7.2 mg/kg/injection, schedule: Q04DX003 (ip), vehicle: saline 194 % of control | dose: 11.0 mg/kg/injection, schedule: Q04DX003 (ip), vehicle: saline 205 % of control | dose: 16.0 mg/kg/injection, schedule: Q04DX003 (ip), vehicle: saline 161 % of control

CCCCCCC(O)CCC(O)CCCCCCCC(=O)O (stereo not given)
inactive: [3] 103 % of control | [4] 92 % of control | [5] 100 % of control
